# Experimental data from patent US7723524B2, “8-cyanoquinolonecarboxylic acid derivative” (Daiichi Pharmaceutical Co., Ltd., priority 2003, dated 2010).
# Where a name gives a salt, the structure may show the parent alone. Read-outs that look alike come from different tables or passages of the source.
# Assays:
# S. pneumoniae J24 = assay: Antibacterial activity (MIC), standard method of the Japanese Society of Chemotherapy; type: cell-based; settings: Streptococcus pneumoniae
# Method: (§1) Antibacterial activity of the compounds of the present invention was measured in accordance with the standard method designated by the Japanese Society of Chemotherapy. The results are shown in MIC values (μg/mL) (Table 1). For comparison with the MIC values of the compounds of the present invention, MIC values of levofloxacin (LVFX), ciprofloxacin (CPFX), and 7-[3-(R)-(1-aminocyclopropyl)pyrrolidin-1-yl]-8-cyano-1-[2-(S)-fluoro-1-(R)-cyclopropyl]-1,4-dihydro-4-oxoquinoline-3-carboxylic acid (control drug 1: represented by the following formula), which is described in International Publication WO 02/40478 pamphlet, are also shown in the table.
# S. aureus 870307 = assay: as above; type: cell-based; settings: Staphylococcus aureus
# Method: as §1
# E. faevcalis ATCC 19433 = assay: as above; type: cell-based
# Method: as §1
# S. flexneri 2A 5503 = assay: as above; type: cell-based; settings: Shigella flexneri, 2A5503
# Method: as §1
# P. aeruginosa 32121 = assay: as above; type: cell-based; settings: Pseudomonas aeruginosa
# Method: as §1
# S. maltophilia IID 1275 = assay: as above; type: cell-based; settings: Stenotrophomonas maltophilia, IID1275
# Method: as §1
# E. coli NIHJ = assay: as above; type: cell-based; settings: Escherichia coli
# Method: as §1
# S. aureus FDA 209P = assay: as above; type: cell-based; settings: Staphylococcus aureus, FDA209P
# Method: as §1
# S. epidermidis 56500 = assay: as above; type: cell-based; settings: Staphylococcus epidermidis
# Method: as §1
# P. aeruginosa 32104 = assay: as above; type: cell-based; settings: Pseudomonas aeruginosa
# Method: as §1
# S. pyogenes G-36 = assay: as above; type: cell-based; settings: Streptococcus pyogenes, G36
# Method: as §1
# P. Vulgaris 08601 = assay: as above; type: cell-based; settings: Proteus vulgaris
# Method: as §1
# K. pneumoniae TYPE I = assay: as above; type: cell-based; settings: Klebsiella pneumoniae
# Method: as §1
# S. marcescens 10100 = assay: as above; type: cell-based; settings: Serratia marcescens
# Method: as §1
# [1] = system: mouse bone marrow polychromatic erythrocytes; assay: Mouse bone marrow micronucleus test; type: in vivo; settings: male Slc:ddY mice, 24 hours after administration
# Method: By use of compound Nos. 1 and 2, a mouse bone marrow micronucleus test was performed through the following method.
# Groups of mice, each consisting of five, six-week-old, male Slc:ddY mice, were used. Compound Nos. 1 and 2 were dissolved in and diluted with 0.1 mol/L NaOH/saline. The medium; i.e., 0.1 mol/L NaOH/saline, was used as a control, and a drug solution which had been prepared by dissolving and diluting cyclophosphamide in saline was used as a positive control drug. All the drug solutions were disinfected through filtration by use of a Mylex GS 0.22 μm filter. Each drug solution was intravenously administered with a regimen of 10 mL/kg single dose at a rate of 0.2 mL/min (100 and 150 mg/kg). Twenty four hours after administration, […] were collected from the femur bone, the smear preparations were prepared, and these were stained with […].
# [2] = S. pneumoniae J24, read-out: MIC
# [3] = S. aureus 870307, read-out: MIC
# [4] = E. faevcalis ATCC 19433, read-out: MIC
# [5] = P. aeruginosa 32121, read-out: MIC
# [6] = S. maltophilia IID 1275, read-out: MIC
# [7] = S. aureus FDA 209P, read-out: MIC
# [8] = S. epidermidis 56500, read-out: MIC
# [9] = P. aeruginosa 32104, read-out: MIC
# [10] = S. pyogenes G-36, read-out: MIC
# [11] = P. Vulgaris 08601, read-out: MIC
# [12] = K. pneumoniae TYPE I, read-out: MIC
# [13] = S. marcescens 10100, read-out: MIC
SMILES,MIC (S. pneumoniae J24; [2]),MIC (S. aureus 870307; [3]),MIC (E. faevcalis ATCC 19433; [4]),MIC (S. flexneri 2A 5503),MIC (P. aeruginosa 32121; [5]),MIC (S. maltophilia IID 1275; [6]),"MIC (E. coli NIHJ; E. coli NIHJ, read-out: MIC)",MIC (S. aureus FDA 209P; [7]),MIC (S. epidermidis 56500; [8]),MIC (P. aeruginosa 32104; [9]),MIC (S. pyogenes G-36; [10]),MIC (P. Vulgaris 08601; [11]),MIC (K. pneumoniae TYPE I; [12]),MIC (S. marcescens 10100; [13]),further results
N#Cc1c(N2CC[C@@H](C3(N)CC3)C2)c(F)cc2c(=O)c(C(=O)O)cn(C3CC3)c12 [No. 2],0.006 µg/mL,0.05 µg/mL,0.025 µg/mL,≤ 0.003 µg/mL,0.05 µg/mL,0.1 µg/mL,≤ 0.003 µg/mL,≤ 0.003 µg/mL,0.012 µg/mL,0.1 µg/mL,0.006 µg/mL,0.006 µg/mL,0.012 µg/mL,0.025 µg/mL,
CNC1([C@@H]2CCN(c3c(F)cc4c(=O)c(C(=O)O)cn([C@@H]5C[C@@H]5F)c4c3C#N)C2)CC1 [No. 3],,,,≤ 0.003 µg/mL,,,,,,,,,,,MIC (S. pneumoniae J24; J24): 0.006 µg/mL; MIC (S. aureus 870307; 870307): 0.025 µg/mL; MIC (E. faevcalis ATCC 19433): 0.05 µg/mL; MIC (P. aeruginosa 32121; 32121): 0.05 µg/mL; MIC (S. maltophilia IID 1275): 0.1 µg/mL; MIC (E. coli NIHJ): ≤ 0.003 µg/mL; MIC (S. aureus FDA 209P): 0.006 µg/mL; MIC (S. epidermidis 56500; 56500): 0.012 µg/mL; MIC (P. aeruginosa 32104; 32104): 0.1 µg/mL; MIC (S. pyogenes G-36): 0.006 µg/mL; MIC (P. Vulgaris 08601): 0.012 µg/mL; MIC (K. pneumoniae TYPE I): 0.025 µg/mL; MIC (S. marcescens 10100; 10100): 0.05 µg/mL
N#Cc1c(N2CC[C@@H](C3(N)CC3)C2)c(F)cc2c(=O)c(C(=O)O)cn([C@@H]3C[C@@H]3F)c12 [No. 1],0.006 µg/mL,0.05 µg/mL,0.025 µg/mL,≤ 0.003 µg/mL,0.05 µg/mL,0.2 µg/mL,≤ 0.003 µg/mL,≤ 0.003 µg/mL,0.006 µg/mL,0.1 µg/mL,0.006 µg/mL,0.006 µg/mL,0.025 µg/mL,0.025 µg/mL,"difference in the micronucleus induction rate between the control and the administration group ([1]; 150 mg/kg intravenous single dose): no significant difference; micronucleus test judgment result ([1]; intravenous single dose, up to 150 mg/kg): negative"
"O=C(O)c1cn(C2CC2)c2cc(N3CCNCC3)c(F)cc2c1=O [CPFX, ciprofloxacin, reference compound]",0.39 µg/mL,> 6.25 µg/mL,0.78 µg/mL,0.006 µg/mL,0.025 µg/mL,0.78 µg/mL,≤ 0.003 µg/mL,0.1 µg/mL,0.2 µg/mL,0.05 µg/mL,1.56 µg/mL,≤ 0.003 µg/mL,0.025 µg/mL,0.025 µg/mL,
"N#Cc1c(N2CC[C@@H](C3(N)CC3)C2)c(F)cc2c(=O)c(C(=O)O)cn(C3CC3)c12 (as salt: trifluoroacetate) (hydrate or solvate) [Compound No. 2, 7-[3-(R)-(1-Aminocyclopropyl)pyrrolidin-1-yl]-8-cyano-1-cyclopropyl-6-fluoro-1,4-dihydro-4-oxoquinoline-3-carboxylate]",,,,,,,,,,,,,,,melting point: 148 to 152 °C
"C[C@H]1COc2c(N3CCN(C)CC3)c(F)cc3c(=O)c(C(=O)O)cn1c23 [LVFX, levofloxacin, reference compound]",0.78 µg/mL,> 6.25 µg/mL,0.78 µg/mL,0.025 µg/mL,0.1 µg/mL,0.39 µg/mL,0.012 µg/mL,0.2 µg/mL,0.39 µg/mL,0.2 µg/mL,0.78 µg/mL,0.012 µg/mL,0.1 µg/mL,0.1 µg/mL,
"N#Cc1c(N2CC[C@@H](C3(N)CC3)C2)c(F)cc2c(=O)c(C(=O)O)cn([C@@H]3C[C@@H]3F)c12 (hydrate or solvate) [Compound No. 1, 7-[3-(R)-(1-Aminocyclopropyl)pyrrolidin-1-yl]-8-cyano-6-fluoro-1-[2-(S)-fluoro-1-(R)-cyclopropyl]-1,4-dihydro-4-oxoquinoline-3-carboxylate]",,,,,,,,,,,,,,,melting point: 138 to 140 °C
CCNC1([C@@H]2CCN(c3c(F)cc4c(=O)c(C(=O)O)cn([C@@H]5C[C@@H]5F)c4c3C#N)C2)CC1 [No. 4],,,,0.006 µg/mL,,,,,,,,,,,MIC (S. pneumoniae J24; J24): 0.006 µg/mL; MIC (S. aureus 870307; 870307): 0.025 µg/mL; MIC (E. faevcalis ATCC 19433): 0.05 µg/mL; MIC (P. aeruginosa 32121; 32121): 0.1 µg/mL; MIC (S. maltophilia IID 1275): 0.2 µg/mL; MIC (E. coli NIHJ): 0.006 µg/mL; MIC (S. aureus FDA 209P): 0.006 µg/mL; MIC (S. epidermidis 56500; 56500): 0.006 µg/mL; MIC (P. aeruginosa 32104; 32104): 0.2 µg/mL; MIC (S. pyogenes G-36): 0.025 µg/mL; MIC (P. Vulgaris 08601): 0.012 µg/mL; MIC (K. pneumoniae TYPE I): 0.025 µg/mL; MIC (S. marcescens 10100; 10100): 0.1 µg/mL
"N#Cc1c(N2CC[C@@H](C3(N)CC3)C2)ccc2c(=O)c(C(=O)O)cn([C@@H]3C[C@@H]3F)c12 [Control drug 1, 7-[3-(R)-(1-aminocyclopropyl)pyrrolidin-1-yl]-8-cyano-1-[2-(S)-fluoro-1-(R)-cyclopropyl]-1,4-dihydro-4-oxoquinoline-3-carboxylic acid, reference compound]",0.025 µg/mL,0.39 µg/mL,0.1 µg/mL,0.012 µg/mL,0.1 µg/mL,0.78 µg/mL,0.012 µg/mL,0.006 µg/mL,0.05 µg/mL,0.2 µg/mL,0.025 µg/mL,0.025 µg/mL,0.1 µg/mL,0.1 µg/mL,
